Laboratory results from ChEMBL document CHEMBL1926636, “Isoxazoles incorporated N-substituted decahydroquinolines: a precursor to the next generation antimicrobial drug” (2012).
In brackets after ≈: the same amount, converted by molar mass.

What was measured:
Staphylococcus aureus [1] = assay: Antibacterial activity against Staphylococcus aureus ATCC 6538 at 10 ug/mL after 24 hrs by disc diffusion method; type: functional; details: ATCC 6538, 24 h, read-out: IZ
Candida albicans [2] = assay: Antifungal activity against Candida albicans ATCC 90028 by twofold serial dilution technique; type: functional
Aspergillus fumigatus [3] = assay: Antifungal activity against Aspergillus fumigatus ATCC 28212 by twofold serial dilution technique; type: functional
Bacillus subtilis [4] = assay: Antibacterial activity against Bacillus subtilis ATCC 6631 at 10 ug/mL after 24 hrs by disc diffusion method; type: functional; details: ATCC 6631, 24 h, read-out: IZ
Pseudomonas aeruginosa [5] = assay: Antibacterial activity against Pseudomonas aeruginosa ATCC 9027 by twofold serial dilution technique; type: functional
Escherichia coli [6] = assay: Antibacterial activity against Escherichia coli ATCC 35218 at 10 ug/mL after 24 hrs by disc diffusion method; type: functional; details: ATCC 35218, 24 h, read-out: IZ
Aspergillus fumigatus [7] = assay: Antifungal activity against Aspergillus fumigatus ATCC 28212 at 10 ug/mL after 72 hrs by agar cup plate method; type: functional; details: ATCC 28212, 72 h, read-out: IZ
Candida albicans [8] = assay: Antifungal activity against Candida albicans ATCC 90028 at 10 ug/mL after 72 hrs by agar cup plate method; type: functional; details: ATCC 90028, 72 h, read-out: IZ
Candida albicans [9] = assay: Antifungal activity against Candida albicans PYCC 3436 at 10 ug/mL after 72 hrs by agar cup plate method; type: functional; details: PYCC 3436, 72 h, read-out: IZ
Aspergillus niger [10] = assay: Antifungal activity against Aspergillus niger ATCC 16404 at 10 ug/mL after 72 hrs by agar cup plate method; type: functional; details: ATCC 16404, 72 h, read-out: IZ
Salmonella typhi [11] = assay: Antibacterial activity against Salmonella typhi ATCC 6539 at 10 ug/mL after 24 hrs by disc diffusion method; type: functional, Salmonella enterica subsp. enterica serovar Typhi; details: Salmonella enterica, ATCC 6539, 24 h; read-out: IZ
Escherichia coli [12] = assay: Antibacterial activity against Escherichia coli ATCC 35218 by twofold serial dilution technique; type: functional
Staphylococcus aureus [13] = assay: Antibacterial activity against Staphylococcus aureus ATCC 6538 by twofold serial dilution technique; type: functional
[14] = tested on: Lysinibacillus sphaericus; assay: Antibacterial activity against Bacillus sphaericus ATCC 7031 by twofold serial dilution technique; type: functional
Aspergillus niger [15] = assay: Antifungal activity against Aspergillus niger ATCC 16404 by twofold serial dilution technique; type: functional
Bacillus subtilis [16] = assay: Antibacterial activity against Bacillus subtilis ATCC 6631 by twofold serial dilution technique; type: functional
Salmonella typhi [17] = assay: Antibacterial activity against Salmonella typhi ATCC 6539 by twofold serial dilution technique; type: functional, Salmonella enterica subsp. enterica serovar Typhi; details: Salmonella enterica
Pseudomonas aeruginosa [18] = assay: Antibacterial activity against Pseudomonas aeruginosa ATCC 9027 at 10 ug/mL after 24 hrs by disc diffusion method; type: functional; details: ATCC 9027, 24 h, read-out: IZ
[19] = tested on: Lysinibacillus sphaericus; assay: Antibacterial activity against Bacillus sphaericus ATCC 7031 at 10 ug/mL after 24 hrs by disc diffusion method; type: functional; details: ATCC 7031, 24 h, read-out: IZ
Candida albicans [20] = assay: Antifungal activity against Candida albicans PYCC 3436 by twofold serial dilution technique; type: functional

c1ccc(CN2C(c3ccccc3)C3=C(NOC3c3c[nH]c4ccccc34)C3CCCCC32)cc1 (stereo not given)
zone of inhibition at 10 µg/mL (Staphylococcus aureus [1]): 11 mm | MIC99 (Candida albicans [2]): 100 µg/mL (≈ 217 µM) | MIC99 (Aspergillus fumigatus [3]): 25 µg/mL (≈ 54.2 µM) | zone of inhibition at 10 µg/mL (Bacillus subtilis [4]): 3 mm | MIC99 (Pseudomonas aeruginosa [5]): 25 µg/mL (≈ 54.2 µM) | zone of inhibition at 10 µg/mL (Escherichia coli [6]): 7 mm | zone of inhibition at 10 µg/mL (Aspergillus fumigatus [7]): 5 mm | zone of inhibition at 10 µg/mL (Candida albicans [8]): 13 mm | zone of inhibition at 10 µg/mL (Candida albicans [9]): 11 mm | zone of inhibition at 10 µg/mL (Aspergillus niger [10]): 9 mm | zone of inhibition at 10 µg/mL (Salmonella typhi [11]): 7 mm | MIC99 (Escherichia coli [12]): 25 µg/mL (≈ 54.2 µM) | MIC99 (Staphylococcus aureus [13]): 50 µg/mL (≈ 108 µM) | MIC99 [14]: 100 µg/mL (≈ 217 µM) | MIC99 (Aspergillus niger [15]): > 100 µg/mL | MIC99 (Bacillus subtilis [16]): > 100 µg/mL | MIC99 (Salmonella typhi [17]): > 100 µg/mL | zone of inhibition at 10 µg/mL (Pseudomonas aeruginosa [18]): 5 mm | zone of inhibition at 10 µg/mL [19]: 6 mm | MIC99 (Candida albicans [20]): 50 µg/mL (≈ 108 µM)
